From publication PMC4933591 (Bioconjugate chemistry, 2015)
Non-standard residues stand in square brackets, D forms with d. Residues, ends and D or L forms follow the SMILES beside them. Aha = [N-]=[N+]=NCC[C@H](N)C(=O)O

Assays:
GLP-1R = molecular target: T1, GLP-1R (Mus musculus, UniProt O35659); assay: In vitro receptor binding assay using NIT-1 cells
T1 sequence (O35659 22-463): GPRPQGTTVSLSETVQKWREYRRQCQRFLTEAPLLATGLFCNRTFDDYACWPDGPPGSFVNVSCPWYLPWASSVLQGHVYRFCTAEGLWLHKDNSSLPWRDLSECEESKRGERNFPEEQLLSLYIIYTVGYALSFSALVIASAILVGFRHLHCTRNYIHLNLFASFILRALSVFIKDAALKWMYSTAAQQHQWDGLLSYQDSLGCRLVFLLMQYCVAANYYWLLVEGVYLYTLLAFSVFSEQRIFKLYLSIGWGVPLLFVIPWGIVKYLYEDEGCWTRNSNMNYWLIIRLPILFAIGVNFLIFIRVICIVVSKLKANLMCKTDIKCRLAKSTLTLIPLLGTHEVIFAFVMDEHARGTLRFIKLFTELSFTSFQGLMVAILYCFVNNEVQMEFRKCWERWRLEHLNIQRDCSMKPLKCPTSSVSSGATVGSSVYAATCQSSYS

[1] = Aggregation observed during experiments; format: physicochemical; conditions: lower concentrations during experiments

Kd (GLP-1R): 5.6 nM
half-life slower than wild-type GLP-1 (trypsin): 1 to 2 orders of magnitude
Structure (SMILES): CC[C@H](C)[C@H](NC(=O)[C@H](Cc1ccccc1)NC(=O)[C@H](CCN=[N+]=[N-])NC(=O)[C@H](CCCCN)NC(=O)[C@H](C)NC(=O)[C@H](C)NC(=O)[C@H](CCC(N)=O)NC(=O)CNC(=O)[C@H](CCC(=O)O)NC(=O)[C@H](CCN=[N+]=[N-])NC(=O)[C@H](Cc1ccc(O)cc1)NC(=O)[C@H](CO)NC(=O)[C@H](CO)NC(=O)[C@@H](NC(=O)[C@H](CC(=O)O)NC(=O)[C@H](CO)NC(=O)[C@@H](NC(=O)[C@H](Cc1ccccc1)NC(=O)[C@@H](NC(=O)CNC(=O)[C@H](CCC(=O)O)NC(=O)[C@H](C)NC(=O)[C@@H](N)Cc1c[nH]cn1)[C@@H](C)O)[C@@H](C)O)C(C)C)C(=O)N[C@@H](C)C(=O)N[C@@H](Cc1c[nH]c2ccccc12)C(=O)N[C@@H](CC(C)C)C(=O)N[C@H](C(=O)N[C@@H](CCCCN)C(=O)NCC(=O)N[C@@H](CCCNC(=N)N)C(N)=O)C(C)C [double mutant GLP-1] (H-HAEGTFTSDVSSY[Aha]EGQAAK[Aha]FIAWLVKGR-NH2)
aggregation [1]: no aggregation was detected at lower concentrations
